Data reported in paper PMC12494546, “Structural basis of heme scavenging by the ChtA and HtaA hemophores in Corynebacterium diphtheriae” (The Journal of Biological Chemistry, 2025).
Values joined by “and” are separate entries in the source; they are usually repeats but may differ in a detail not shown here. Equal entries are not always repeated.

Experiments:
[1] = target: HtaB^CR (HtaB, residues of 30–273); experiment: Estimated hemin KD from native ESI-MS partitioning; format: binding, Corynebacterium diphtheriae; details: read-out: estimated KD for hemin, from nESI-MS Krel using ITC value of ChtA^CR as reference
Description: (§1) The C. diphtheriae hemin-uptake system contains six CR domains that are located at distinct sites outside the cell (Fig. 1). […] Together, they represent nearly the full complement of C. diphtheriae’s CR domains (only the domains from ChtB and ChtC are missing, but they are expected to have similar binding properties as their paralogs, HtaB and ChtA, respectively). […] Similar measurements were made for the following protein pairs: HtaA^CR2/HtaB^CR, HtaA^CR1/HtaB^CR, HtaA^CR2/HtaA^CR1, ChtA^CR/HtaA^CR2, and ChtA^CR/HtaB^CR (Table S4).
(§2) nESI-MS was used for ligand (heme)-competition experiments between CR domain pairs to determine their relative heme dissociation constant Krelative (Krel) ([37], [56]). In this approach, two different CR domains (e.g. a >90% heme-loaded “heme donor” and a <10% heme-loaded “heme acceptor” CR domain) are mixed and allowed to come to equilibrium (>6 h, 24 °C). The resulting mixture is then analyzed by nESI-MS, where the apo- and holo-abundance of each CR domain is determined from the sum peak intensity from each of their charge states as described previously ([37]). The relative affinity between the CR pair tested can be determined by their nESI-MS abundances according to Equation 1, which is derived from the ratio of each CR’s KD for heme. Importantly, this analysis is independent of [heme] and Krel should be consistent across different concentrations of [heme donor] and [heme acceptor]; thus, we used at least three different holo-donor and apo-acceptor stoichiometry ratios to determine each Krel reported in Table S4.(eq. 1) KRelative=[CR^hemeacceptor][CR^hemedonor·heme]/[CR^hemedonor][CR^hemeacceptor·heme]=Ab(CR^hemeacceptor)Ab(CR^hemedonor·heme)/Ab(CR^hemedonor)Ab(CR^hemeacceptor·heme)
(§3) For nESI-MS heme-competition experiments, CR domains were first buffer-exchanged into 50 mM ammonium acetate (pH 6.9) using dialysis or gel filtration and protein concentration was determined by bicinchoninic acid assay or UV-visible absorbance at 280 nm. […]

[2] = target: HtaA^CR2 (residues G344-G506); experiment: Estimated hemin KD from native ESI-MS partitioning; format: binding, Corynebacterium diphtheriae; details: read-out: estimated KD for hemin, from nESI-MS Krel using ITC value of ChtA^CR as reference
Description: as §1, §2, §3

[3] = target: HtaA^CR1 (residues S37-G214); experiment: Estimated hemin KD from native ESI-MS partitioning; format: binding, Corynebacterium diphtheriae; details: read-out: estimated KD for hemin, from nESI-MS Krel using ITC value of ChtA^CR as reference
Description: as §1, §2, §3

[4] = system: CR domains within C. diphtheriae’s hemin-uptake system; experiment: Hemin affinity across the cohort of CR domains (ITC and native MS partitioning); format: binding, Corynebacterium diphtheriae; details: across ChtA^CR, HtaB^CR, HtaA^CR1, HtaA^CR2
Description: as §1
nESI-MS was used for ligand (heme)-competition experiments between CR domain pairs to determine their relative heme dissociation constant Krelative (Krel) ([37], [56]). […] The resulting mixture is then analyzed by nESI-MS, where the apo- and holo-abundance of each CR domain is determined from the sum peak intensity from each of their charge states as described previously ([37]). The relative affinity between the CR pair tested can be determined by their nESI-MS abundances according to Equation 1, which is derived from the ratio of each CR’s KD for heme. […]
as §3

[5] = system: HtaA^CR2 (donor) / ChtA^CR (acceptor); experiment: Native ESI-MS hemin partitioning HtaA^CR2 → ChtA^CR; format: binding, Corynebacterium diphtheriae
Description: as §2
(§4) For nESI-MS heme-competition experiments, CR domains were first buffer-exchanged into 50 mM ammonium acetate (pH 6.9) using dialysis or gel filtration and protein concentration was determined by bicinchoninic acid assay or UV-visible absorbance at 280 nm. Proteins were then mixed at donor:acceptor ratios ranging from 1:9 to 9:1 (but most often 1:3, 1:1, and 3:1), and incubated for at least 6 h at 24 °C. Equilibrated mixtures were then loaded into platinum-coated borosilicate emitter tips with an inner diameter of 200 to 500 nm pulled on a Sutter P-1000 Micropipette Puller and sprayed on a Q-Exactive UHMR Hybrid Quadrupole-Orbitrap Mass Spectrometer (Thermo Fisher Scientific).
(§5) Table of all CR pairs and stoichiometric ratios tested during the native ESI-MS heme equilibrium partitioning experiments. Apo or holo CR domains were mixed at various ratios (most commonly 1:3, 1:1, and 3:1, corresponding to 5:15 µM, 10:10 µM, or 15:5 µM, respectively).

[6] = system: ChtA^CR Y129A; experiment: ITC of hemin binding to ChtA^CR Y129A; parameters: species or system Corynebacterium diphtheriae
Description: (§6) Protein samples were equilibrated in titration buffer supplemented with 5% (v/v) DMSO. […] Binding isotherms were fit to a one-site binding model using the program ORIGIN ([91]).

[7] = system: HtaB^CR (donor) / HtaA^CR2 (acceptor); experiment: Native ESI-MS hemin partitioning HtaB^CR → HtaA^CR2; format: binding, Corynebacterium diphtheriae
Description: as §2, §4, §5

[8] = target: IsdA NEAT domain; parameters: method as in PMID 23649633, PMID 24245481; details: ITC, ref [57], [58]; cited from earlier work
[9] = system: ChtA^CR Y178A; experiment: ITC of hemin binding to ChtA^CR Y178A; parameters: species or system Corynebacterium diphtheriae
Description: as §6

[10] = target: ChtA^CR Y178H; experiment: ITC of hemin binding to ChtA^CR Y178H; parameters: species or system Corynebacterium diphtheriae; details: 25 °C, average of three replicates
Description: as §6

[11] = system: HtaA^CR1 (donor) / HtaB^CR (acceptor); experiment: Native ESI-MS hemin partitioning HtaA^CR1 → HtaB^CR; format: binding, Corynebacterium diphtheriae
Description: as §2, §4, §5

[12] = target: IsdH NEAT domain; parameters: method as in PMID 23649633, PMID 24245481; details: ITC, ref [57], [58]; cited from earlier work
[13] = target: T1, metHb (Homo sapiens, UniProt P68871+P69905); experiment: Hemin release kinetics from metHb (A405 plate reader assay with apo-acceptor); format: binding; details: 5 µM metHb, brackets 95% confidence interval; for kfast / kslow: 25 °C
T1 construct: blood-purified HbA in the carbonmonoxy form; from tissue; host or cells: blood
Description: Holo-metHb was injected to a final concentration of 5 μM on the heme basis in triplicate with 50 μM of the respective apo protein in a 384-well plate. The absorbance at 405 nm was measured every 2.5 min for 20 h in a SpectraMax iD3 plate reader (Molecular Devices). Experiments were performed at 25 °C to avoid apo-globin aggregation. Resulting curves were fit to a two-phase exponential decay equation in GraphPad Prism version 9.5.0 (GraphPad Software).
Bracketed values represent the 95% confidence interval for the fitted parameter values.

[14] = target: ChtA^CR K177G; experiment: ITC of hemin binding to ChtA^CR K177G; parameters: species or system Corynebacterium diphtheriae; details: 25 °C, average of three replicates
Description: as §6

[15] = system: HtaA^CR1 / HtaA^CR2; experiment: Native ESI-MS hemin partitioning HtaA^CR1 → HtaA^CR2; format: binding, Corynebacterium diphtheriae; details: transfer HtaA^CR1 → HtaA^CR2 (donor HtaA^CR2, acceptor HtaA^CR1)
Description: as §2, §4, §5

[16] = target: ChtA^CR K177G + Y178H; experiment: ITC of hemin binding to ChtA^CR K177G + Y178H; parameters: species or system Corynebacterium diphtheriae; details: 25 °C, average of three replicates
Description: as §6

[17] = system: HtaA^CR2 (donor) / HtaB^CR (acceptor); experiment: Native ESI-MS hemin partitioning HtaA^CR2 → HtaB^CR; format: binding, Corynebacterium diphtheriae
Description: as §2, §4, §5

[18] = apo-acceptor Myoglobin^H64Y/V68F 50 µM

T1 sequence (P69905 2-142 limits assumed): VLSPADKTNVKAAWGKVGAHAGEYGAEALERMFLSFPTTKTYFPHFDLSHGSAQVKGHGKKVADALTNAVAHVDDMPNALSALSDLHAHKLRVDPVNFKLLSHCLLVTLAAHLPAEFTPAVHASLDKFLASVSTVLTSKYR
T1 sequence (P68871 2-147 limits assumed): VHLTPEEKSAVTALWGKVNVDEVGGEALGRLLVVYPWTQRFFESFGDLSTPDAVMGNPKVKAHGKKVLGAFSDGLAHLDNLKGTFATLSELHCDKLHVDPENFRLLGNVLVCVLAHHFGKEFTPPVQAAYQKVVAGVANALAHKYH

Work on hemin yielded a Kd [1] of 5.4 ± 1 nM, a Kd [2] of 0.85 ± 0.15 nM and a Kd [3] of 1.1 ± 0.3 nM. The “variation in binding strength” value [4] was roughly 25 fold, the Krel inverse ([5]; AVERAGE) was 24.96 ± 8.87 and the “Krel (donor/acceptor)” value ([5]; ratio 1:1) was 0.05. The Krel inverse ([5]; ratio 1:1) was 18.29, the “Krel (donor/acceptor)” value ([5]; ratio 1:3) was 0.05 and the Krel inverse ([5]; ratio 1:3) was 19.27. For the same substance, the “Krel (donor/acceptor)” value ([5]; ratio 2:1) was 0.03 and 0.06, the Krel inverse ([5]; ratio 3:1) was 32.96 and the “Krel (donor/acceptor)” value ([5]; ratio (donor:acceptor) 3:1) was 0.03. The “decrease in binding affinity” value ([6]; ChtA^CR Y129A versus WT) was greater than 25 fold, the Kd ([6]; ChtA^CR Y129A, 25 °C, average of three replicates) was greater than 500 nM and the “Krel (donor/acceptor)” value ([7]; acceptor HtaA^CR2, AVERAGE) was 0.18 ± 0.01. For the same substance, the Krel inverse ([7]; acceptor HtaA^CR2, AVERAGE) was 5.66 ± 0.33, the “Krel (donor/acceptor)” value ([7]; acceptor HtaA^CR2, ratio 1:1) was 0.17 and the Krel inverse ([7]; acceptor HtaA^CR2, ratio 1:1) was 5.8. For the same substance, the “Krel (donor/acceptor)” value ([7]; acceptor HtaA^CR2, ratio 1:3) was 0.17, the Krel inverse ([7]; acceptor HtaA^CR2, ratio 1:3) was 5.9 and the “Krel (donor/acceptor)” value ([7]; acceptor HtaA^CR2, ratio 3:1) was 0.19. For the same substance, the Krel inverse ([7]; acceptor HtaA^CR2, ratio 3:1) was 5.28, the Kd [8] was 14 ± 4 nM and the reduction of affinity ([9]; ChtA^CR Y178A versus WT) was roughly 2 fold. The Kd ([9]; ChtA^CR Y178A, 25 °C, average of three replicates) was 46.6 ± 9.6 nM, the Kd [10] was 54.8 ± 1.9 nM and the “Krel (donor/acceptor)” value ([11]; AVERAGE) was 5.75 ± 1.4. The Krel inverse ([11]; AVERAGE) was 0.18 ± 0.05, the “Krel (donor/acceptor)” value ([11]; ratio 1:1) was 7.51 and 4.09 and 6.88 and the Krel inverse ([11]; ratio 1:1) was 0.13 and 0.24 and 0.15. The “Krel (donor/acceptor)” value ([11]; ratio 1:3) was 4.46 and 4.42, the Krel inverse ([11]; ratio 1:3) was 0.22 and 0.23 and the “Krel (donor/acceptor)” value ([11]; ratio 3:1) was 6.16 and 6.76. The Krel inverse ([11]; ratio 3:1) was 0.16 and 0.15, the Kd [12] was 34 ± 8 nM and the kfast ([13]; apo-acceptor ChtA^CR 50 µM) was 1.78 [1.51 - 2.1] hr^-1. For the same substance, the kslow ([13]; apo-acceptor ChtA^CR 50 µM) was 0.18 [0.17 - 0.19] hr^-1, the “%kfast” value ([13]; apo-acceptor ChtA^CR 50 µM) was 35.52% [33.1% - 37.9%] and the kfast ([13]; apo-acceptor HtaA^CR1 50 µM) was 1.55 [1.13 - 2.15] hr^-1. The kslow ([13]; apo-acceptor HtaA^CR1 50 µM) was 0.21 [0.18 - 0.23] hr^-1, the “%kfast” value ([13]; apo-acceptor HtaA^CR1 50 µM) was 33.11% [26.9% - 39%] and the kfast ([13]; apo-acceptor HtaA^CR2 50 µM) was 2.46 [2.23 - 2.72] hr^-1. The kslow ([13]; apo-acceptor HtaA^CR2 50 µM) was 0.21 [0.19 to 0.22] hr^-1, the “%kfast” value ([13]; apo-acceptor HtaA^CR2 50 µM) was 41.11% [39.3% - 42.9%] and the kslow [13, 18] was 0.13 [0.11 - 0.14] hr^-1. The “%kfast” value [13, 18] was 34.6% [30.8% - 38.3%], the Kd [14] was 23.6 ± 0.8 nM and the “Krel (donor/acceptor)” value ([15]; AVERAGE) was 0.84 ± 0.12. For the same substance, the Krel inverse ([15]; AVERAGE) was 1.2 ± 0.15, the “Krel (donor/acceptor)” value ([15]; ratio 1:1) was 0.78 and the Krel inverse ([15]; ratio 1:1) was 1.28. For the same substance, the “Krel (donor/acceptor)” value ([15]; ratio 1:3) was 0.98, the Krel inverse ([15]; ratio 1:3) was 1.02 and the “Krel (donor/acceptor)” value ([15]; ratio 3:1) was 0.77. For the same substance, the Krel inverse ([15]; ratio 3:1) was 1.29, the Kd [16] was 27.1 ± 9 nM and the “Krel (donor/acceptor)” value ([17]; AVERAGE) was 4.93 ± 0.88. For the same substance, the Krel inverse ([17]; AVERAGE) was 0.21 ± 0.04, the “Krel (donor/acceptor)” value ([17]; ratio 1:1) was 3.92 and the Krel inverse ([17]; ratio 1:1) was 0.26. The “Krel (donor/acceptor)” value ([17]; ratio 1:3) was 5.31, the Krel inverse ([17]; ratio 1:3) was 0.19 and the “Krel (donor/acceptor)” value ([17]; ratio 3:1) was 5.56. For the same substance, the Krel inverse ([17]; ratio 3:1) was 0.18.
